Test results: ChEMBL document CHEMBL4418314, “Cyano-substituted heterocycles with activity as inhibitors of usp30” (2018)
pIC50: −log10 of the molar value.

Target: T1, Ubiquitin carboxyl-terminal hydrolase 30 (Homo sapiens, UniProt Q70CQ3)
T1 sequence (Q70CQ3 whole entry): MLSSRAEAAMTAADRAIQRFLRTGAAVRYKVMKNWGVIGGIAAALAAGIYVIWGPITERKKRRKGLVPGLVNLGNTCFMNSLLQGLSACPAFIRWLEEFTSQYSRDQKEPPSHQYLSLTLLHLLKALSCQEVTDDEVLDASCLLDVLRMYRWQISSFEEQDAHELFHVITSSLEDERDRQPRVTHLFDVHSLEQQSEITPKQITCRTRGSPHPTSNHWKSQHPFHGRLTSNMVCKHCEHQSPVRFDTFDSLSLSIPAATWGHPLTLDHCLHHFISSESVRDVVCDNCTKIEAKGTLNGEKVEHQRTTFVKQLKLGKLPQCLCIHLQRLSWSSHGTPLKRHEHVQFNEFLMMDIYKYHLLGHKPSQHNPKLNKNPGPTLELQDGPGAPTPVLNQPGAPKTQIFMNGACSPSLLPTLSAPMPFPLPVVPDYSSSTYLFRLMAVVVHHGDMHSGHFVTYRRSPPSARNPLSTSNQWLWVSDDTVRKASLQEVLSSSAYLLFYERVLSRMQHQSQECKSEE
Assay: Inhibition of untagged human USP30 catalytic domain (57 to 517 residues) expressed in Escherichia coli using TAMRA labeled ubiquitin peptide as substrate preincubated for 30 min followed by substrate addition and measured after 2 hrs by fluorescence polarization assay

pIC50: > 7.00
SMILES: N#CN1CCC[C@](F)(C(=O)Nc2cc(-c3cccc(C(F)(F)F)c3)on2)C1
